Assay [1] relates to apoptotic cells of spinal cord. Description: TUNEL staining of apoptosis after spinal cord injury. The class given is in vivo. As to conditions: rats after spinal cord injury, 30 mg/Kg per day for 7 days, vs vehicle. How it is done: (§1) In this example, effects of compounds of this invention were verified using spinal cord injury animal model.
(§2) The spinal cord injury was produced by using the NYU (New York University) impactor device. The spinal cord contusion was performed under deep anesthesia with Zoleti150 (40 mg/kg i.p.) After a dorsal laminectomy was performed on T9, the spinal cord segments T9 were exposed. Then, the surgery of spinal cord injury was produced by dropping the 10 gram rod from a height of 50 mm.
(§3) Compound 1 was dissolved in 5% ethanol, 35% polyethylene glycol and 60% normal saline at a concentration of 15 mg/ml. […]
(§4) On 7th day after hemisection spinal cord injury, animals were deeply anesthetized by isoflurane and perfused through the left ventricle with phosphate-buffered saline (PBS), followed by cold 4% paraformaldehyde in 0.15M sodium phosphate buffer, pH 7.4. […] Furthermore, apoptosis after spinal cord injury was detected by terminal deoxynucleotidyl transferase-mediated deoxyuridine triphosphate nick-end labeling (TUNEL) using the apoptosis detection kit (Oncogene Research Products, Cambridge, Mass.). […] Only cells with clearly visible stain were counted. All data are presented as means±SEM of five consecutive cell quantifications.

Assay [2] has as its system histone 3 and 4 acetylation, p21 and phospho-ERK. The experiment in a line: Western blot of histone 3 and 4 acetylation, p21 and phospho-ERK after spinal cord injury. It counts as in vivo, rats. The following applies: 100 mg/kg intravenous injection, vs vehicle control. The protocol:
as §1, §2, §3

Assay [3] relates to NeuN-positive neurons of spinal cord. The experiment in a line: NeuN immunohistochemistry after spinal cord injury. As to conditions: rats after spinal cord injury, 30 mg/Kg per day for 7 days, vs vehicle. It counts as in vivo. How it is done:
as §1, §2, §3, §4

The subject of a further assay is Tg2576 mice. Description: Contextual fear conditioning (CS-US pairing) in dementia animal model. The class given is in vivo. As to conditions: orally 50 mg/kg per day for 20 days, 6-month old p=0.0264, 12-month old p=0.0028 vs untreated of same age. From the text:
(§5) Tg2576 transgenic mice carry a transgene coding for the 695-amino acid isoform of human APP derived from a large Swedish family with early-onset Alzheimer's disease (AD). These mice express high concentrations of the mutant Aβ, develop significant number of amyloid plaques and display memory deficits.
Tg2576 transgenic mice carry a transgene coding for the 695-amino acid isoform of human APP derived from a large Swedish family with early-onset Alzheimer's disease (AD). These mice express high concentrations of the mutant Aβ, develop significant number of amyloid plaques and display memory deficits. Tg2576 mice were purchased from The Jackson laboratory (Maine, US). C57BL/6J mice 6-8 week of age were purchased from BioLASCO Taiwan Co., Ltd for dose-dependent effect study. The animals were housed 5 per cage in a temperature (21±1° C.)—and humidity (70±5%)—controlled room, under a 12 h-12 h light-dark cycle (lights on at 6:00 a.m.). Animal had free access to food and water during the experiment. Behavior testing was carried out in the light phase of the cycle. […]
(§6) All mice were transported to the laboratory for 2 hour before training to erase unnecessary stress. […] The data was recorded and calculated by its system software (TruScan 2.02).

The next assay concerns C57BL/6J mice. The experiment in a line: Contextual fear conditioning (freezing behavioral test) in normal mice. It counts as in vivo. As to conditions: normal C57BL/6J mice; 50, 100, 200 mg/kg intraperitoneally once before training; test 24 h after training; dose dependent; *p<0.05, **p<0.01.
Source text: Tg2576 transgenic mice carry a transgene coding for the 695-amino acid isoform of human APP derived from a large Swedish family with early-onset Alzheimer's disease (AD). These mice express high concentrations of the mutant Aβ, develop significant number of amyloid plaques and display memory deficits. Tg2576 mice were purchased from The Jackson laboratory (Maine, US). C57BL/6J mice 6-8 week of age were purchased from BioLASCO Taiwan Co., Ltd for dose-dependent effect study. The animals were housed 5 per cage in a temperature (21±1° C.)—and humidity (70±5%)—controlled room, under a 12 h-12 h light-dark cycle (lights on at 6:00 a.m.). Animal had free access to food and water during the experiment. Behavior testing was carried out in the light phase of the cycle. All animal experiments were carried out in accordance with the guidelines established by the Institutional Animal Care and Utilization Committee of the Taipei Medical University (Taipei, Taiwan, R.O.C.).
as §3, §6

Assay [4] has as its system Sprague-Dawley rats with spinal cord injury. The experiment in a line: BBB Locomotor Rating Scale after spinal cord injury. The class given is in vivo. The following applies: intravenous 30 mg/Kg per day for 7 days, 7 days after spinal cord injury, vs vehicle, p=0.0147. How it is done: as §1
Male Sprague-Dawley rats (Academia Sinica, Taiwan), weighing 280-330 g, were kept two per cage for at least five days after their arrival. The rats had access to food and water at libitum and were housed within a room with a 12:12 h dark-light cycle. This study was performed in accordance with the guidelines provided by the Experimental Animal Laboratory and approved by the Animal Care and Use Committee in Taipei Medical University.
as §2
Behavioral tests and analyses were performed by observers blinded to the treatments. Locomotor function was observed and recorded using the Basso, Beattie, and Bresnahan (BBB) Locomotor Rating Scale. On days 1, 3, and 7 post injury, hindlimb motor function was assessed using the open-field BBB score locomotor test.
as §3

Assay [5] deals with synaptic plasticity proteins. The experiment in a line: Western blotting of synaptic plasticity proteins in hippocampus of Tg2576 mice. It counts as in vivo. The following applies: oral gavage 50 mg/kg per day for 20 days. The protocol: as §5
Compound 1 was dissolved in 5% ethanol, 35% polyethylene glycol and 60% normal saline at a concentration of 15 mg/ml. C57BL/6J Mice were treated with Compound 1 (50, 100, 200 mg/kg, intraperitoneally) or vehicle once before contexual fear conditioning training. Then, Tg2576 transgenic mice were treated with Compound 1 orally (50 mg/kg per day for 20 days) or vehicle at the ages of 5 months and 11 months.
Animals were deep anesthetized with choral hydrate (400 mg/kg) and perfused with both normal saline and 4% paraformaldehyde. The hippocampus were collected and lysed in lysis buffer (Lysis-M reagent, Roche). The lysates were incubated for 5 min on ice and centrifuged for 20 min at 14,000 r.p.m. and 4° C. The supernatant was collected as cytosolic protein extract. Protein concentrations were measured and normalized using Bradford protein assay kit (Pierce). After normalization, 30 μg of protein was subjected to western blotting. Immunoreactivity was examined by enhanced chemiluminescence (Millipore).

Regarding `O=C(/C=C/c1ccc2c(ccn2S(=O)(=O)c2ccccc2)c1)NO` [compound 1, 3-(1-benzensulfonyl-1H-indol-5-yl)-N-hydroxy-acrylamide], the “apoptotic cells number (TUNEL)” value in assay [1] (p=0.0015) is “significantly reduced”. Besides, the “apoptotic cells percentage (TUNEL)” value in assay [1] (p=0.0098) is “significantly reduced”. Also, the “expression of histone 4 acetylation (ac-H4)” value in assay [2] (p=0.0023) is “Significant increase”. Besides, the “expression of p21” value in assay [2] (p=0.0043) is listed as “Significant increase”. Further, in assay [2] (p=0.0311), the “expression of phospho-ERK (p-ERK)” value is “Significant increase”. Moreover, in assay [2] (p=0.0451), the “expression of histone 3 acetylation (ac-H3)” value is “Significant increase”. Also, the “neuron cells percentage (NeuN)” value in assay [3] (p<0.0001) is given as “significantly preserved”. Also, in assay [3] (p=0.0151), the “neuron cells number (NeuN)” value is “significantly preserved”. Moreover, in the assay on Tg2576 mice, the “tone-shock pairing memory (contextual fear conditioning)” value is recorded as “enhanced”. Further, the “strength of tone-shock pairing memory (freezing behavioral test)” value in the assay with C57BL/6J mice is reported as “increased significantly”. In assay [4], the “BBB score (motor function)” value is “significant recovery”. For the same compound, the “acetyl-Histone H4 expression in hippocampus” value in assay [5] (###p=0.0008) is reported as “elevated”. For the same compound, in assay [5] (#p=0.0145), the “p21 expression in hippocampus” value was “elevated”. Besides, the “NR2a protein expression in hippocampus” value in assay [5] (#p=0.0231) is “elevated”. Further, in assay [5] (#p=0.0428), the “pERK expression in hippocampus” value is given as “elevated”. Further, the “NR2b protein expression in hippocampus” value in assay [5] (#p=0.0492) is “elevated”.

The values are drawn from patent US9956202B2, “Use of indolyl and indolinyl hydroxamates for treating neurodegenerative disorders or cognitive decicits” (Taipei Medical University, priority 2013, dated 2018).
